Laboratory results from US7850984B2, “Protection of the female reproductive system from natural and artificial insults” (The General Hospital Corporation, priority 2000, dated 2010).

Experiments:
[1] = tested on: germ cells of wild-type fetal ovaries (e13.5); test: Fetal ovary culture without hormonal support, germ cell survival; format: cell-based, mouse; settings: wild-type fetal ovaries, 72 hours in vitro without hormonal support; FB1 5-500 μM; S1P increasing concentrations
Procedure: To determine the basis of the extensive oocyte hyperplasia in ASMase −/− neonates, fetal ovaries are harvested from wild-type and mutant mice at embryonic day 13.5 (e13.5) for in vitro culture as a model to recapitulate the events surrounding germline death that occurs as a normal component of female gametogenesis. A time-dependent activation of programmed cell death is observed in the germline of wild-type fetal ovaries cultured without hormonal support for up to 72 hours (FIG. 2A). […] These findings indicate that there exists an ovarian-intrinsic cell death defect in the ASMase-deficient mouse, and point to enhanced survival of the developing germline during oogenesis as the mechanism underlying the enlarged oocyte pool seen in mutant females at birth.
Equivalent levels of in vitro germ cell survival are obtained by either ASMase gene knockout (FIG. 2A) or by S1P treatment (FIG. 2B).

oocytes [2] = settings: female mouse oocytes; Perez et al. (1997); cited from earlier work
oocytes [3] = test: In vitro oocyte culture with or without doxorubicin, apoptosis; format: cell-based, mouse; settings: 200 nM DXR, 24 hours, wild-type versus ASMase-deficient oocytes
Procedure: In addition to assessments of cellular morphology and caspase activation, some oocytes in each group are processed for DNA cleavage analysis as an endpoint for cell death using the Trevigen Comet Assay kit.
Female mice (43 days of age post-partum; Charles River Laboratories, Wilmington, Mass.) are superovulated with 10 IU of equine chorionic gonadotropin (eCG orPMSG) followed by 10 IU of human chorionic gonadotropin (hCG) 48 h later. Mature oocytes are collected from the oviducts 16 h after hCG injection. Cumulus enclosed oocytes are denuded by a 1-min incubation in 80 IU/ml of hyaluronidase, followed by three washes with culture medium. The medium used for all culture experiments is human tubal fluid (Irvine Scientific, Santa Ana, Calif.) supplemented with 0.5% bovine serum albumin (BSA).
Oocytes are cultured in 0.1 ml drops of culture medium (8-10 oocytes/drop) under paraffin oil and incubated with or without DXR (200 nM) and/or fumonisin-B1, sphingosine-1-phosphate or benzyloxycarbonyl-Val-Ala-Asp-fluoromethylketone (zVAD-FMK) for 24 h at 37° C. in a humidified atmosphere of 5% CO2-95% air. […] The percentage of oocytes that go through apoptosis out of the total number of oocytes cultured per drop in each experiment is then determined, and all experiments are independently repeated four to ten times with different mice.

oocytes [4] = test: Microinjection of recombinant protein into single oocytes, apoptosis; format: cell-based, mouse; settings: wild-type oocytes; ASMase: six picoliters of a 1 mg/ml stock
Procedure: Human recombinant acid sphingomyelinase is synthesized and purified as described by He et al., Biochim. Biophys. Acta 1432, 251 (1999), incorporated herein by reference in its entirety. Six picoliters of vehicle or of a 1 mg/ml stock of the enzyme are microinjected into single oocytes using a Zeiss Axiovert 135 inverted microscope equipped with Narishige micromanipulators and a PLI-100 pico-injector. Oocytes that survive the microinjection procedure (>75%) are then cultured and assessed for the occurrence of apoptosis. Furthermore, microinjection of human recombinant Bax protein into single oocytes and assessments of apoptosis are made as described by Perez, et al. (1997) id. Microinjection of human recombinant Bax protein into oocytes duplicates the pro-apoptotic effects of both human recombinant ASMase microinjection and anti-cancer drug treatment (FIG. 3E).

CCCC[C@@H](C)[C@@H](OC(=O)C[C@@H](CC(=O)O)C(=O)O)[C@H](C[C@@H](C)C[C@H](O)CCCC[C@@H](O)C[C@H](O)[C@H](C)N)OC(=O)C[C@@H](CC(=O)O)C(=O)O [FB1, fumonisin-B1, reference compound]
germ cell survival / germ cell apoptosis in cultured fetal ovaries [1]: does not alter survival rates in the female germline

COc1cccc2c1C(=O)c1c(O)c3c(c(O)c1C2=O)C[C@@](O)(C(=O)CO)C[C@@H]3O[C@H]1C[C@H](N)[C@H](O)[C@H](C)O1 [DXR, doxorubicin, reference compound]
oocyte cell death on in vitro exposure (oocytes [2]): undergo a type of cell death, referred to as apoptosis | apoptotic event in oocytes (oocytes [3]): elicited in wild-type, but not ASMase-deficient, oocytes

human recombinant Bax: human recombinant Bax protein microinjected into single oocytes
apoptosis after microinjection versus vehicle-injected oocytes (oocytes [4]): significant (P<0.05) increase in apoptosis

B1: human recombinant ASMase: human recombinant acid sphingomyelinase enzyme microinjected into single oocytes (protein, UniProt P17405 47-631, looked up)
Sphingomyelin …: LALSDSRVLWAPAEAHPLSPQGHPARLHRIVPRLRDVFGWGNLTCPICKGLFTAINLGLKKEPNVARVGSVAIKLCNLLKIAPPAVCQSIVHLFEDDMVEVWRRSVLSPSEACGLLLGSTCGHWDIFSSWNISLPTVPKPPPKPPSPPAPGAPVSRILFLTDLHWDHDYLEGTDPDCADPLCCRRGSGLPPASRPGAGYWGEYSKCDLPLRTLESLLSGLGPAGPFDMVYWTGDIPAHDVWHQTRQDQLRALTTVTALVRKFLGPVPVYPAVGNHESTPVNSFPPPFIEGNHSSRWLYEAMAKAWEPWLPAEALRTLRIGGFYALSPYPGLRLISLNMNFCSRENFWLLINSTDPAGQLQWLVGELQAAEDRGDKVHIIGHIPPGHCLKSWSWNYYRIVARYENTLAAQFFGHTHVDEFEVFYDEETLSRPLAVAFLAPSATTYIGLNPGYRVYQIDGNYSGSSHVVLDHETYILNLTQANIPGAIPHWQLLYRARETYGLPNTLPTAWHNLVYRMRGDMQLFQTFWFLYHKGHPPSEPCGTPCRLATLCAQLSARADSPALCRHLMPDGSLPEAQSLWPRPLFC
apoptosis after microinjection versus vehicle-injected oocytes (oocytes [4]): significant (P<0.05) increase in apoptosis
